# Measured values taken from patent publication US9695155B2, “Herbicidal substituted pyrimidinyloxy benzene compounds” (E. I. DU PONT DE NEMOURS AND COMPANY, priority 2013, dated 2017).
# Key:
# [1] = tested on: kochia; assay: Test C postemergence; assay type: in vivo, Kochia scoparia
# From the text: (§1) Seeds of plant species selected from blackgrass (Alopecurus myosuroides), Italian ryegrass (Lolium multiflorum), wheat, winter (winter wheat, Triticum aestivum), galium (catchweed bedstraw, Galium aparine), corn (Zea mays), large (Lg) crabgrass (Digitaria sanguinalis), giant foxtail (Setaria faberii), johnsongrass (Sorghum halepense), lambsquarters (Chenopodium album), morningglory (Ipomoea coccinea), yellow nutsedge (Cyperus esculentus), pigweed (Amaranthus retroflexus), ragweed (common ragweed, Ambrosia elatior), soybean (Glycine max), barnyardgrass (Echinochloa crus-galli), oilseed rape (Brassica napus), waterhemp (common waterhemp, Amaranthus rudis), kochia (Kochia scoparia), wild oat (Avena fatua), surinam grass (Brachiaria decumbens), foxtail, green (green foxtail, Setaria viridis), goosegrass (Eleusine indica), bromegrass, downy (downy bromegrass, Bromus tectorum), nightshade (eastern black nightshade, Solanum ptycanthum), cocklebur (common cocklebur, Xanthium strumarium), cupgrass, woolly (woolly cupgrass, Eriochloa villosa), bermudagrass (Cynodon dactylon), sunflower, (common oilseed sunflower, Helianthus annuus), Russian thistle (Salsola kali), and velvetleaf (Abutilon theophrasti) were planted into a blend of loam soil and sand and treated preemergence with test chemicals formulated in a non-phytotoxic solvent mixture which included a surfactant.
# (§2) At the same time, plants selected from these crop and weed species and also barley, winter (winter barley, Hordeum vulgare), windgrass (Apera spica-venti), chickweed (common chickweed, Stellaria media), deadnettle (henbit deadnettle, Lamium amplexicaule), and canarygrass (littleseed canarygrass, Phalaris minor) were planted in pots containing Redi-Earth® planting medium (Scotts Company, 14111 Scottslawn Road, Marysville, Ohio 43041) comprising spaghnum peat moss, vermiculite, wetting agent and starter nutrients and treated with postemergence applications of test chemicals formulated in the same manner. Plants ranged in height from 2 to 18 cm (1- to 4-leaf stage) for postemergence treatments. Treated plants and controls were maintained in a greenhouse for 13 to 15 days, after which time all species were compared to controls and visually evaluated. Plant response ratings, summarized in Table C, are based on a scale of 0 to 100 where 0 is no effect and 100 is complete control. A dash (-) response means no test result.
# [2] = tested on: pigweed; assay: Test A preemergence; assay type: in vivo, Amaranthus retroflexus
# Summary of the method: (§3)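 Compounds in non-phytotoxic solvent with surfactant applied as soil spray preemergence, or postemergence to plants 2-10 cm at one- to two-leaf stage, in loam/sand. After approximately 10 days in greenhouse, injury rated visually versus untreated controls, 0 (no effect) to 100 (complete control).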
# [3] = tested on: galium; assay: Test C postemergence; assay type: in vivo, Galium aparine
# From the text: as §1, §2
# [4] = tested on: johnsongrass; assay: Test C postemergence; assay type: in vivo, Sorghum halepense
# Summary of the method: (§4)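 Whole-plant greenhouse test with surfactant-containing solvent formulation, applied preemergence to sown loam–sand pots or postemergence to 2–18 cm plants. Scored by eye 13 to 15 days on, 0–100 scale.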
# [5] = tested on: pigweed; assay: Test A postemergence; assay type: in vivo, Amaranthus retroflexus
# Summary of the method: as §3
# [6] = tested on: giant foxtail; assay: Test A postemergence; assay type: in vivo, Setaria faberii
# Summary of the method: as §3
# [7] = tested on: barnyardgrass; assay: Test A preemergence; assay type: in vivo, Echinochloa crus-galli
# Summary of the method: as §3
# [8] = tested on: corn; assay: Test A postemergence; assay type: in vivo, Zea mays
# Summary of the method: as §3
# [9] = tested on: giant foxtail; assay: Test C postemergence; assay type: in vivo, Setaria faberii
# Summary of the method: as §4
# [10] = tested on: chickweed; assay: Test C postemergence; assay type: in vivo, Stellaria media
# From the text: as §1, §2
# [11] = tested on: corn; assay: Test C postemergence; assay type: in vivo, Zea mays
# From the text: as §1, §2
# [12] = 31 g ai/ha, postemergence, visual rating, scale 0 to 100 (0 no effect, 100 complete control), 13 to 15 days
# [13] = 125 g ai/ha, postemergence, visual rating, scale 0 to 100 (0 no effect, 100 complete control)
# [14] = Postemergence, 62 g ai/ha, scale 0 to 100 (0 no effect, 100 complete control), 13 to 15 days
# [15] = 500 g ai/ha, 0 to 100 scale where 0 is no effect and 100 is complete control
# [16] = 125 g ai/ha, 0 to 100 scale, 0 no effect, 100 complete control
structure (smiles),measurement,setting,value
N#Cc1cccc(Oc2ncc(Cl)cn2)c1-n1cc(-n2ccc(C(F)(F)F)n2)cn1 [Compound 284],Kochia plant response rating,[1]; [12],100
same,"Plant response rating, Kochia",[1]; [13],100
same,"Plant response rating (0 to 100), Kochia","[1]; 250 g ai/ha, postemergence",100
same,"Plant response rating, Kochia",[1]; [14],100
same,Pigweed plant response rating (0 to 100 scale),[2]; 125 g ai/ha,100
same,Pigweed plant response rating,[2]; [15],100
same,Galium plant response rating,[3]; [12],100
same,"Plant response rating, Galium",[3]; [13],85
same,"Plant response rating (0 to 100), Galium","[3]; 250 g ai/ha, postemergence",100
same,"Plant response rating, Galium",[3]; [14],85
same,Johnsongrass plant response rating,[4]; [12],5
same,"Plant response rating, Johnsongrass",[4]; [13],20
same,"Plant response rating (0 to 100), Johnsongrass","[4]; 250 g ai/ha, postemergence",20
same,"Plant response rating, Johnsongrass",[4]; [14],5
same,"Plant response rating, Pigweed",[5]; [16],100
same,"Plant response rating, Pigweed",[5]; [15],100
same,"Plant response rating, Foxtail, Giant",[6]; [16],90
same,"Plant response rating, Foxtail, Giant",[6]; [15],90
same,"Barnyardgrass plant response rating (0 to 100 scale, 0 is no effect, 100 is complete control)",[7]; 125 g ai/ha,60
same,Barnyardgrass plant response rating,[7]; [15],90
same,"Plant response rating, Corn",[8]; [16],20
same,"Plant response rating, Corn",[8]; [15],40
same,"Foxtail, Giant plant response rating",[9]; [12],10
same,"Plant response rating, Foxtail, Giant",[9]; [13],20
same,"Plant response rating (0 to 100), Foxtail, Giant","[9]; 250 g ai/ha, postemergence",25
same,"Plant response rating, Foxtail, Giant",[9]; [14],10
same,Chickweed plant response rating,[10]; [12],65
same,"Plant response rating, Chickweed",[10]; [13],100
same,"Plant response rating (0 to 100), Chickweed","[10]; 250 g ai/ha, postemergence",100
same,"Plant response rating, Chickweed",[10]; [14],100
same,Corn plant response rating,[11]; [12],5
same,"Plant response rating, Corn",[11]; [13],20
same,"Plant response rating (0 to 100), Corn","[11]; 250 g ai/ha, postemergence",20
same,"Plant response rating, Corn",[11]; [14],10
